Patent US12590099B2, “Inhibitors of histone deacetylase useful for the treatment or prevention of HIV infection” (Merck Sharp & Dohme LLC, priority 2018, dated 2026)
Like-named read-outs stand apart in the source and are kept apart here.

Assays:
Recombinant human HDAC2 = biological target: T1, Recombinant human HDAC2 (Homo sapiens, UniProt Q92769); assay: Human HDAC enzyme inhibitor Fluor-de-Lys assay, HDAC2; format: biochemical
T1 construct: Full length human HDAC2-FLAG was expressed in baculovirus infected Sf9 cells; FLAG (C); made in house; host or cells: Sf9 (baculovirus)
How it was run: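 Fluor-de-Lys format at room temperature (23° C.): compounds titrated 10-point, 1:3, preincubated with HDAC before substrate addition. Developer with excess HDAC inhibitor ends the reaction, and trypsin-liberated AMC fluorescence is the read-out.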

KARN cells (Jurkat 2C4) = assay: cells; format: cell-based; details: Homo sapiens, Jurkat
How it was run: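 Jurkat 2C4 (KARN) cells dosed with test compounds up to 40 μM final, 0.4% DMSO, overnight at 5% CO2; luciferase read by Steady-Glo luminescence after 10 min at room temperature. DMSO set as 0% and 2 μM SAHA as 100% induction; 4-parameter fit of percent activation.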

[1] = recombinant human HDAC2, Fluor-de-Lys assay
[2] = read-out: Karn EC50 (nM) 0.1% NHS, 0.1% normal human serum, luciferase induction, 100% = 2 μM SAHA
[3] = read-out: Karn EC50 (nM) 5% NHS, 5% normal human serum, luciferase induction, 100% = 2 μM SAHA
[4] = read-out: Karn EC50 (nM) 0.1% NHS, 0.1% normal human serum
[5] = read-out: Karn EC50 (nM) 5% NHS, 5% normal human serum

T1 sequence (Q92769 whole entry): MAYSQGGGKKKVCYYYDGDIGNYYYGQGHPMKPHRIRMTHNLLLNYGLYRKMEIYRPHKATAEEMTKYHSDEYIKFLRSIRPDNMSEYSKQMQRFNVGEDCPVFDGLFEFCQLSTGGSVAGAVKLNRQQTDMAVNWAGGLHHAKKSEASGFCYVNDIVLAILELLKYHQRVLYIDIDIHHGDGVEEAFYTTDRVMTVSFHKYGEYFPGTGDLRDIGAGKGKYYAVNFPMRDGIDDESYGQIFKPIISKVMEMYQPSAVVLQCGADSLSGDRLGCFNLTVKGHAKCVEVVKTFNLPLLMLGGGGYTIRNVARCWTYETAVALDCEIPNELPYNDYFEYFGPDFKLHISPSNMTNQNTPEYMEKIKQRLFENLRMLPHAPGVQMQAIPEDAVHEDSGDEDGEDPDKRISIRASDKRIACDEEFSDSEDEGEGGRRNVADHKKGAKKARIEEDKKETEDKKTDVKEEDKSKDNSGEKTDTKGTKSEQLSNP

| SMILES | IC50 (Recombinant human HDAC2; [1]) | EC50 (KARN cells (Jurkat 2C4); [2]) | EC50 (KARN cells (Jurkat 2C4); [3]) | IC50 (Recombinant human HDAC2) | EC50 (KARN cells (Jurkat 2C4); [4]) | EC50 (KARN cells (Jurkat 2C4); [5]) |
| --- | --- | --- | --- | --- | --- | --- |
| CCC(=O)CCCCC[C@H](NC(=O)[C@H]1CC12CN(C)C2)c1ncc(-c2cc3ccc(C)nc3cc2OC)o1 (single isomer, unassigned) [Compound 230] | 2.7 nM | 88 nM | 83 nM |  |  |  |
| CCC(=O)CCCCC[C@H](NC(=O)[C@@H]1CC12CN(C)C2)c1ncc(-c2cc3ccc(C)nc3cc2OC)o1 (single isomer, unassigned) [Compound 231] | 19.2 nM | 589 nM | 535 nM |  |  |  |
| CCC(=O)CCCCC[C@H](NC(=O)C1CC12CC1CCC(C2)N1C)c1ncc(-c2ccc3ncccc3c2)[nH]1 (single isomer, unassigned) [Compound 242] | 16.1 nM | 1690 nM | 2770 nM |  |  |  |
| CCC(=O)CCCCC[C@H](NC(=O)[C@H]1CC12CCN(C)CC2)c1ncc(-c2ccc3nc(C(F)(F)F)ccc3c2)o1 [Compound 78, (1S)-6-methyl-N-[(1S)-7-oxo-1-{5-[2-(trifluoromethyl)quinolin-6-yl]-1,3-oxazol-2-yl}nonyl]-6-azaspiro[2.5]octane-1-carboxamide] |  |  |  | 62.3 nM | 911 nM | 1440 nM |
| CCC(=O)CCCCC[C@H](NC(=O)[C@H]1CC12CCN(C)CC2)c1ncc(-c2ccc3nc(C)ccc3c2)o1 [Compound 80] |  |  |  | 14.8 nM | 435 nM | 501 nM |
| CCC(=O)CCCCC[C@H](NC(=O)[C@H]1CC12CCN(C)CC2)c1nc(Cl)c(-c2cc3ccccc3nc2O)[nH]1 [Compound 81, (1S)—N-{(1S)-1-[4-chloro-5-(2-hydroxyquinolin-3-yl)-1H-imidazol-2-yl]-7-oxononyl}-6-methyl-6-azaspiro[2.5]octane-1-carboxamide] |  |  |  | 337 nM | 6430 nM | 10700 nM |
| CCC(=O)CCCCC[C@H](NC(=O)[C@H]1CC12CCN(C(C)C)CC2)c1ncc(-c2ccc3nc(C)ccc3c2)[nH]1 [Compound 83] |  |  |  | < 1.5 nM | 64 nM | 60 nM |
| CN1CCC2(CC1)C[C@@H]2C(=O)N[C@@H](CCCCCC(=O)CC1CC1)c1ncc(-c2ccc(F)cc2)[nH]1 [Compound 84] |  |  |  | 63.8 nM | 632 nM | 1180 nM |
| CCC(=O)CCCCC[C@H](NC(=O)[C@H]1CC12CCN(C)CC2)c1ncc(-c2coc3ccccc3c2=O)[nH]1 [Compound 86] |  |  |  | 64.8 nM | 1060 nM | 1510 nM |
| CCC(=O)CCCCC[C@H](NC(=O)[C@H]1CC12CCN(C)CC2)c1ncc(-c2ccc3ncoc3c2)[nH]1 [Compound 89] |  |  |  |  | 219 nM | 237 nM |
| CCC(=O)CCCCC[C@H](NC(=O)[C@H]1CC12CCN(C)CC2)c1ncc(-c2ccc3cc(C#N)ccc3c2)[nH]1 [Compound 90] |  |  |  | 1.6 nM | 52 nM | 33 nM |
| CCC(=O)CCCCC[C@H](NC(=O)[C@H]1CC12CCN(C)CC2)c1[nH]c(-c2ccc(F)cc2)nc1Cl [Compound 91] |  |  |  | 14.2 nM | 207 nM | 274 nM |
| CCC(=O)CCCCC[C@H](NC(=O)[C@H]1CC12CCN(CC)CC2)c1ncc(-c2ccc(-c3nccs3)cc2)o1 [Compound 93] |  |  |  | 25.6 nM | 688 nM | 736 nM |
| CCC(=O)CCCCC[C@H](NC(=O)[C@H]1CC12CCN(CC)CC2)c1ncc(-c2ccc(-c3ncco3)cc2)o1 [Compound 94] |  |  |  | 34 nM | 502 nM | 549 nM |
| CCC(=O)CCCCC[C@H](NC(=O)[C@H]1CC12CCN(CC)CC2)c1ncc(-c2ccc(-n3cccn3)cc2)o1 [Compound 95] |  |  |  | 31.5 nM | 522 nM | 747 nM |
| CCC(=O)CCCCC[C@H](NC(=O)[C@H]1CC12CCN(C(C)C)CC2)c1ncc(-c2ccc3c(ccc(=O)n3C)c2)o1 [Compound 96] |  |  |  | 44.5 nM | 1370 nM | 1510 nM |
| CCC(=O)CCCCC[C@H](NC(=O)[C@H]1CC12CCN(CC)CC2)c1ncc(-c2ccc3c(ccc(=O)n3C)c2)o1 [Compound 97] |  |  |  | 23 nM | 563 nM | 660 nM |
| CCC(=O)CCCCC[C@H](NC(=O)[C@H]1CC12CCN(C(C)C)CC2)c1ncc(-c2cc3ccccc3nc2OC)o1 [Compound 99] |  |  |  | 17.8 nM | 162 nM | 310 nM |
| CCC(=O)CCCCC[C@H](NC(=O)[C@H]1CC12CCN(C(C)C)CC2)c1ncc(-c2ccc3nc(C4CC4)ccc3c2)[nH]1 [Compound 100] |  |  |  | < 1.5 nM | 68 nM | 64 nM |
| CCC(=O)CCCCC[C@H](NC(=O)C1=NOC2(CCN(C)CC2)C1)c1ncc(-c2ccc(-c3cccnc3)cc2OC)o1 [Compound 222, N-{(1S)-1-[5-(2-methoxy-4-pyridin-3-ylphenyl)-1,3-oxazol-2-yl]-7-oxononyl}-8-methyl-1-oxa-2,8-diazaspiro[4.5]dec-2-ene-3-carboxamide] | 24.5 nM | 298 nM | 364 nM |  |  |  |

| SMILES | IC50 (Recombinant human HDAC2; [1]) | EC50 (KARN cells (Jurkat 2C4); [2]) | EC50 (KARN cells (Jurkat 2C4); [3]) | IC50 (Recombinant human HDAC2) | EC50 (KARN cells (Jurkat 2C4); [4]) | EC50 (KARN cells (Jurkat 2C4); [5]) |
| --- | --- | --- | --- | --- | --- | --- |
| CCC(=O)CCCCC[C@H](NC(=O)C1=NOC2(CCN(C)CC2)C1)c1ncc(-c2cc3cccnc3cc2OC)o1 [Compound 223] | 9.7 nM | 272 nM | 559 nM |  |  |  |
| CCC(=O)CCCCC[C@H](N)c1ncc(-c2cc3ccc(=O)n(C)c3cc2OC)o1 [Compound 224] | 444 nM | 5000 nM | 6970 nM |  |  |  |
| CCC(=O)CCCCC[C@H](NC(=O)C1=NOC2(CCN(CC3CC3)CC2)C1)c1ncc(-c2cc3ccc(C)nc3cc2OC)o1 [Compound 225] | 6.2 nM | 217 nM | 247 nM |  |  |  |
| CCC(=O)CCCCC[C@H](NC(=O)[C@H]1CC12CCN(CC1CC1)CC2)c1ncc(-c2cc3ccc(C)nc3cc2F)[nH]1 [Compound 228] | 0.6 nM | 22 nM | 22 nM |  |  |  |
| CCC(=O)CCCCC[C@H](NC(=O)[C@H]1CC12CCN(CC1CC1)CC2)c1ncc(-c2cc3ccn(C)c(=O)c3cc2OC)o1 [Compound 229] | 0.7 nM | 31 nM | 29 nM |  |  |  |
| CCC(=O)CCCCC[C@H](NC(=O)C1=NOC2(CCN(C)CC2)C1)c1ncc(-c2cc3ccc(C)nc3cc2F)[nH]1 [Compound 232] | 21.4 nM | 144 nM | 248 nM |  |  |  |
| CCC(=O)CCCCC[C@H](NC(=O)C1=NOC2(CCN(CC)CC2)C1)c1ncc(-c2cc3ccc(C)nc3cc2F)[nH]1 [Compound 233] | 25.2 nM | 166 nM | 230 nM |  |  |  |
| CCC(=O)CCCCC[C@H](NC(=O)C1=NOC2(CCN(CC3CC3)CC2)C1)c1ncc(-c2cc3ccc(C)nc3cc2F)[nH]1 [Compound 234] | 14.1 nM | 160 nM | 262 nM |  |  |  |
| CCC(=O)CCCCC[C@H](NC(=O)C1=NOC2(CCN(CC)CC2)C1)c1ncc(-c2cc3ccc(=O)n(C)c3cc2OC)o1 [Compound 235] | 12.4 nM | 249 nM | 411 nM |  |  |  |
| CCC(=O)CCCCC[C@H](NC(=O)C1=NOC2(CCN(CC3CC3)CC2)C1)c1ncc(-c2cc3ccc(=O)n(C)c3cc2OC)o1 [Compound 236] | 9.9 nM | 442 nM | 476 nM |  |  |  |
| CCC(=O)CCCCC[C@H](NC(=O)C1=NOC2(CCN(C)CC2)C1)c1ncc(-c2ccc(-c3cnccn3)cc2OC)o1 [Compound 237, N-{(1S)-1-[5-(2-methoxy-4-pyrazin-2-ylphenyl)-1,3-oxazol-2-yl]-7-oxononyl}-8-methyl-1-oxa-2,8-diazaspiro[4.5]dec-2-ene-3-carboxamide] | 27.2 nM | 235 nM | 274 nM |  |  |  |
| CCC(=O)CCCCC[C@H](NC(=O)[C@H]1CC12CCN(CC)CC2)c1ncc(-c2ccc3nn(C4CC4)cc3c2)[nH]1 [Compound 238] | 1.9 nM | 66 nM | 45 nM |  |  |  |
| CCCC(=O)CCCCC[C@H](NC(=O)[C@H]1CC12CCN(C)CC2)c1ncc(-c2ccc(F)cc2)[nH]1 [Compound 239] | 77.4 nM | 324 nM | 581 nM |  |  |  |
| CCC(=O)CCCCC[C@H](NC(=O)[C@H]1CC12CCN(C)CC2)c1[nH]c(-c2ccc(F)cc2)nc1Cl [Compound 240] | 38.1 nM | 247 nM | 346 nM |  |  |  |
| CCC(=O)CCCCC[C@H](NC(=O)C1CC12CCN(CC)CC2)c1nc(-c2ccc(F)cc2)[nH]c1-c1cnc(OC)nc1 (stereo partly shown) [Compound 247] | 214 nM | 9640 nM | 10800 nM |  |  |  |
| CCC(=O)CCCCC[C@H](NC(=O)C1CC12CCN(CC)CC2)c1nc(-c2ccc(F)cc2)[nH]c1-c1cnn(C)c1 (stereo partly shown) [Compound 248] | 24.1 nM | 183 nM | 429 nM |  |  |  |
| CCC(=O)CCCCC[C@H](NC(=O)C1CC12CCN(CC)CC2)c1nc(-c2ccc(F)cc2)[nH]c1-c1cn[nH]c1 (stereo partly shown) [Compound 249] | 88.3 nM | > 40000 nM |  |  |  |  |
| CCC(=O)CCCCC[C@H](NC(=O)C1CC12CCN(CC)CC2)c1nc(-c2ccc(F)cc2)[nH]c1-c1ccsc1 (stereo partly shown) [Compound 250] | 192 nM | 3730 nM | 4100 nM |  |  |  |
| CCC(=O)CCCCC[C@H](NC(=O)C1CC12CCN(CC)CC2)c1nc(-c2ccc(F)cc2)[nH]c1-c1ccn(C)c1 (stereo partly shown) [Compound 251] | 12.6 nM | 143 nM | 216 nM |  |  |  |
| CCC(=O)CCCCC[C@H](NC(=O)C1CC12CCN(CC)CC2)c1nc(-c2ccc(F)cc2)[nH]c1-c1cccs1 (stereo partly shown) [Compound 252] | 185 nM | 1600 nM | 2880 nM |  |  |  |
